{"source": "patent US7879371B2", "about": "(priority 2002, dated 2011)", "origin": "cited, not measured here", "key": {"[1]": {"tested_on": "A. tumefaciens str. A348 (pSM358) virE::lacZ"}, "[2]": {"tested_on": "A. tumefaciens vir genes, strain A348 (pSM243cd)", "conditions": "for vir gene induction efficiency versus corresponding phenolic acids: strain A348 (pSM243cd), only above 100 μM"}, "[3]": {"tested_on": "A. tumefaciens nopaline type strains T37 and C58"}, "[4]": {"conditions": "cultures of strains C58F and T37"}}, "note": "Where two headings read alike, the source gives them in different places."}
{"smiles": "COc1cc(C=O)cc(OC)c1O[C@@H]1O[C@H](CO)[C@@H](O[C@H]2O[C@H](CO)[C@@H](O)[C@H](O)[C@H]2O)[C@H](O)[C@H]1O", "note": "[beta-maltoside of syringaldehyde]", "values": [{"measurement": "vir-inducing activity versus free phenol", "setting": "[1]; at high concentrations", "value": "higher activity than the free phenol"}]}
{"smiles": "CCNC(=O)/C=C/c1cc(OC)c(O)c(OC)c1", "note": "[ethylsinapamide]", "values": [{"measurement": "vir gene induction efficiency versus corresponding phenolic acids", "setting": "[2]", "value": "more efficient than the corresponding phenolic acids"}]}
{"smiles": "CCNC(=O)c1cc(OC)c(O)c(OC)c1", "note": "[ethylsyringamide]", "values": [{"measurement": "vir gene induction activity versus acetosyringone", "setting": "[2]; concentrations above 1 mM", "value": "higher activity than acetosyringone"}]}
{"smiles": "COc1cc(C(C)=O)cc(OC)c1O", "note": "[acetosyringone]", "values": [{"measurement": "growth of A. tumefaciens strains", "setting": "[3]", "value": "inhibited the growth"}]}
{"smiles": "COc1cc(C=O)cc(OC)c1O", "note": "[syringaldehyde]", "values": [{"measurement": "growth of A. tumefaciens strains", "setting": "[3]; [4]", "value": "inhibited growth"}]}
{"smiles": "COc1cc(C(C)=O)cc(OC)c1O[C@H]1O[C@@H](C)[C@@H](O)[C@@H](O)[C@@H]1O", "note": "[Acetosyringonyl beta-L-fucopyranoside]", "values": [{"measurement": "vir-inducing activity", "setting": "[1]; 13 synthetic beta-glycosides compared", "value": "most active monoglycoside tested"}, {"measurement": "toxic effects", "setting": "[1]; even at high concentrations", "value": "devoid of toxic effects"}]}
{"smiles": "CCNC(=O)/C=C/c1ccc(O)c(OC)c1", "note": "[ethylferulamide]", "values": [{"measurement": "vir gene induction efficiency versus corresponding phenolic acids", "setting": "[2]", "value": "more efficient than the corresponding phenolic acids"}]}
{"smiles": "COc1cc(C=CC(=O)O)cc(OC)c1O", "note": "(stereo in doubt) [sinapinic acid]", "values": [{"measurement": "growth of A. tumefaciens strains", "setting": "[3]; [4]", "value": "inhibited growth"}]}
